In ChEMBL document CHEMBL3885861, “Open TG-GATES”:

Species: Rattus norvegicus
Test: Open TG-GATES - Regimen: Single
Assay type: toxicity, organism-based, Sprague-Dawley
Set-up: regimen Single, gender Male, age 6 weeks
Settings: in vivo, po, 100 mg/kg, route gavage, dose level Middle; for APTT / Bas / Eos / Fbg / Hb / Ht / Lym / MCH / MCHC / MCV / Mono / Neu / PT / Plat / RBC / Ret / WBC: tissue Blood; for KIDNEY_L / KIDNEY_R / KIDNEY_TOTAL: tissue Kidney; for LIVER: tissue Liver; for A/G / ALP / ALT / AST / BUN / CRE / Ca / Cl / DBIL / GLC / IP / K / LDH / Na / PL / RALB / TBIL / TC / TG / TP / gamma-GTP: tissue Plasma

## Nc1ccc(Cc2ccc(N)cc2)cc1
3 h
  TERMINAL_BW: 212.4 g
  APTT: 14.4 s
  Bas: 0%
  Eos: 0.6%
  Fbg: 268.8 mg/dL
  Hb: 13 g/dL
  Ht: 38%
  Lym: 75.8%
  MCH: 21 pg
  MCHC: 34.2%
  MCV: 61.4 fL
  Mono: 3.8%
  Neu: 19.4%
  PT: 11.7 s
  Plat: 154.4 x10_4/uL
  RBC: 618.6 x10_4/ul
  Ret: 8.7%
  WBC: 83.6 x10_2/uL
  KIDNEY_L: 0.8 g
  KIDNEY_R: 0.9 g
  KIDNEY_TOTAL: 1.7 g
  LIVER: 9.1 g
  A/G: 0.8
  ALP: 1470.6 IU/L
  ALT: 45.6 IU/L
  AST: 82.8 IU/L
  BUN: 11 mg/dL
  CRE: 0.2 mg/dL
  Ca: 10.9 mg/dL
  Cl: 104 meq/L
  DBIL: 0.028 mg/dL
  GLC: 173.6 mg/dL
  IP: 9.4 mg/dL
  K: 4 meq/L
  LDH: 64.4 IU/L
  Na: 140.2 meq/L
  PL: 155.6 mg/dL
  RALB: 2.5 g/dL
  TBIL: 0.074 mg/dL
  TC: 86.4 mg/dL
  TG: 73 mg/dL
  TP: 5.6 g/dL
  gamma-GTP: 1.2 IU/L
6 h
  TERMINAL_BW: 206.8 g
  APTT: 14.6 s
  Bas: 0%
  Eos: 0.6%
  Fbg: 278 mg/dL
  Hb: 13.4 g/dL
  Ht: 39.2%
  Lym: 62.4%
  MCH: 21.2 pg
  MCHC: 34.1%
  MCV: 62.3 fL
  Mono: 3.6%
  Neu: 32.2%
  PT: 11.8 s
  Plat: 144.9 x10_4/uL
  RBC: 630.2 x10_4/ul
  Ret: 8.2%
  WBC: 104 x10_2/uL
  KIDNEY_L: 0.9 g
  KIDNEY_R: 0.9 g
  KIDNEY_TOTAL: 1.9 g
  LIVER: 9.3 g
  A/G: 0.8
  ALP: 1520.8 IU/L
  ALT: 42.8 IU/L
  AST: 94.8 IU/L
  BUN: 8.8 mg/dL
  CRE: 0.2 mg/dL
  Ca: 10.5 mg/dL
  Cl: 104.6 meq/L
  DBIL: 0.1 mg/dL
  GLC: 176.2 mg/dL
  IP: 9.5 mg/dL
  K: 4 meq/L
  LDH: 90 IU/L
  Na: 140.2 meq/L
  PL: 152.4 mg/dL
  RALB: 2.5 g/dL
  TBIL: 0.2 mg/dL
  TC: 79 mg/dL
  TG: 53.2 mg/dL
  TP: 5.6 g/dL
  gamma-GTP: 2.6 IU/L
9 h
  TERMINAL_BW: 205.5 g
  APTT: 14.8 s
  Bas: 0%
  Eos: 0.8%
  Fbg: 285.4 mg/dL
  Hb: 13 g/dL
  Ht: 37.8%
  Lym: 68.6%
  MCH: 21.2 pg
  MCHC: 34.2%
  MCV: 61.9 fL
  Mono: 2.8%
  Neu: 27.6%
  PT: 12.1 s
  Plat: 139.1 x10_4/uL
  RBC: 610.8 x10_4/ul
  Ret: 7.8%
  WBC: 72.9 x10_2/uL
  KIDNEY_L: 0.9 g
  KIDNEY_R: 0.9 g
  KIDNEY_TOTAL: 1.8 g
  LIVER: 8 g
  A/G: 0.8
  ALP: 1218.8 IU/L
  ALT: 43.8 IU/L
  AST: 105 IU/L
  BUN: 8.2 mg/dL
  CRE: 0.2 mg/dL
  Ca: 10.2 mg/dL
  Cl: 106.2 meq/L
  DBIL: 0.2 mg/dL
  GLC: 167.6 mg/dL
  IP: 9.4 mg/dL
  K: 4.5 meq/L
  LDH: 99 IU/L
  Na: 142.4 meq/L
  PL: 166.2 mg/dL
  RALB: 2.4 g/dL
  TBIL: 0.3 mg/dL
  TC: 86.8 mg/dL
  TG: 39.8 mg/dL
  TP: 5.3 g/dL
  gamma-GTP: 3.4 IU/L
24 h
  TERMINAL_BW: 195.3 g
  APTT: 16.4 s
  Bas: 0%
  Eos: 0.4%
  Fbg: 474.8 mg/dL
  Hb: 12.6 g/dL
  Ht: 35.7%
  Lym: 62.4%
  MCH: 21.5 pg
  MCHC: 35.4%
  MCV: 60.6 fL
  Mono: 5%
  Neu: 31%
  PT: 11.5 s
  Plat: 149.3 x10_4/uL
  RBC: 589 x10_4/ul
  Ret: 6.7%
  WBC: 118.7 x10_2/uL
  KIDNEY_L: 0.9 g
  KIDNEY_R: 0.9 g
  KIDNEY_TOTAL: 1.8 g
  LIVER: 7.8 g
  A/G: 0.8
  ALP: 3282.4 IU/L
  ALT: 252.8 IU/L
  AST: 532.6 IU/L
  BUN: 11.2 mg/dL
  CRE: 0.2 mg/dL
  Ca: 11.1 mg/dL
  Cl: 102.2 meq/L
  DBIL: 2.3 mg/dL
  GLC: 136.2 mg/dL
  IP: 9.6 mg/dL
  K: 3.8 meq/L
  LDH: 332.8 IU/L
  Na: 143.8 meq/L
  PL: 302.6 mg/dL
  RALB: 2.4 g/dL
  TBIL: 3.1 mg/dL
  TC: 135.2 mg/dL
  TG: 63.4 mg/dL
  TP: 5.6 g/dL
  gamma-GTP: 8.6 IU/L
